Reference: article doi:10.1101/2023.02.27.530254, “Large library docking for cannabinoid-1 receptor agonists with reduced side effects” (bioRxiv, 2024)
Where “and” joins values, the source holds several entries; their conditions need not be identical. Identical values can stand only once.

Tests used:
C56BL/6 mice = assay: Conditioned place preference; conditions: mouse, in vivo
Procedure: To determine if ‘4042 was inherently rewarding or aversive we used the conditioned place paradigm as described. Briefly, mice were first habituated to the test apparatus, twice, and their preference for each chamber recorded for 30 minutes (Pretest). Two conditioning days followed in which mice received the vehicle control or the compound, and 30 minutes later restricted for 30 minutes in the preferred or non-preferred chamber, respectively. On day 5 (Test day), mice were allowed to roam freely between the 3 chambers of the apparatus and their preference for each chamber recorded for 30 minutes. To calculate the CPP score, we subtracted the time spent in each chamber of the box on the Pretest day from that of the Test day (CPP score = Test - Pretest).

CB1R = molecular target: T1, CB1R (Homo sapiens, UniProt P21554, C107A/C139A/C149A/C238A/C355A/C382A/C386A/C415A/C431A/C449A/C98A/R336C); assay: Bimane fluorescence of TM6-labeled minimal cysteine CB1R; format: biochemical; conditions: 10 μM ligand; apo 459 nm
T1 construct: N-terminal FLAG tag and C-terminal histidine tag was added to human full-length CB1; FLAG (N); histidine tag (C); made in house; host or cells: Spodoptera frugiperda Sf9 (baculovirus)
T1 sequence (P21554 whole entry C98A/C107A/C139A/C149A/C238A/R336C/C355A/C382A/C386A/C415A/C431A/C449A): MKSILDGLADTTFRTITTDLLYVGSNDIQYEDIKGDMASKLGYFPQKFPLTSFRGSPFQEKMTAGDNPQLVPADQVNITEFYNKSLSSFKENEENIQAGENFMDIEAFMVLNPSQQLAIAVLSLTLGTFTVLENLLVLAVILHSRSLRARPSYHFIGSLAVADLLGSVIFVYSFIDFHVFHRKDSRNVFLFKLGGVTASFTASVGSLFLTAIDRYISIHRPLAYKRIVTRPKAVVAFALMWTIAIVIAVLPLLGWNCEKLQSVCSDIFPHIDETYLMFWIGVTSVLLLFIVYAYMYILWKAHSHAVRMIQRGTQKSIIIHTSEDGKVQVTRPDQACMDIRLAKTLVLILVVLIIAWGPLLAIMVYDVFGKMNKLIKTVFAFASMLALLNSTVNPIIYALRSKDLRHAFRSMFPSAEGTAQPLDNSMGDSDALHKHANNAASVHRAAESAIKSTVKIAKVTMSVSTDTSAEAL
Procedure: A minimal cysteine version of CB1R was generated[73] where all the cysteine residues (except C256 and C264) were mutated to alanine. […] Excess label was removed using size exclusion chromatography on a Superdex 200 10/300 Increase column in 20 mM HEPES pH 7.5, 100 mM NaCl and 0.01% MNG/0.001% CHS. Bimane-labeled CB1R at […] was incubated with ligands (10 μM) for one hour at room temperature. Fluorescence data was collected at room temperature in a 150 μL cuvette with a FluorEssence v3.8 software on a Fluorolog instrument (Horiba) in photon-counting mode. Bimane fluorescence was measured by excitation at 370 nm with excitation and emission bandwidth passes of 4 nm. The emission spectra were recorded from 410 to 510 nm with 1 nm increment and 0.1 s integration time.

CB1 = molecular target: T2, CB1 (Rattus norvegicus, UniProt P20272); assay: Radioligand competition binding with [3H]-CP-55,940, rat brain membranes; conditions: for Ki: [3H]-CP-55,940 competition, rat brain membranes
T2 construct: membrane preparations from rat brain (source of CB1); tissue Bioivt RAT00BRAINMZN; host or cells: rat brain
T2 sequence (P20272 whole entry): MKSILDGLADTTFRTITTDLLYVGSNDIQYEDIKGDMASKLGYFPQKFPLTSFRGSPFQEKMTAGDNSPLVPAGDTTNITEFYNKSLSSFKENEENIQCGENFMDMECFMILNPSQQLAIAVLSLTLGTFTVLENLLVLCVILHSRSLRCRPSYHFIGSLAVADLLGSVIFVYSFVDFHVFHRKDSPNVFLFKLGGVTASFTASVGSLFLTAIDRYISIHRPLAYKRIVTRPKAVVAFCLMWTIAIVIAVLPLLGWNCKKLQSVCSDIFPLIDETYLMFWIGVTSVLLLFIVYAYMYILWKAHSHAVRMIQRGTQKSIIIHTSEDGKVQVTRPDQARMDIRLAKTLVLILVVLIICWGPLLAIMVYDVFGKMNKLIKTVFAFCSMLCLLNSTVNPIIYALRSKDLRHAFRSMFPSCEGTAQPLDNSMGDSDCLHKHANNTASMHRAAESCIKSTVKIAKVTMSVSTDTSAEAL
Procedure: The results were analyzed using nonlinear regression to determine the IC50 and Ki values for each ligand (Prism by GraphPad Software, Inc., San Diego, CA). The Ki values are expressed as the mean of two to three experiments each performed in triplicate.

hCB1 [1] = molecular target: T3, hCB1 (Homo sapiens, UniProt P21554); assay: Lance Ultra cAMP accumulation assay (inhibition of forskolin-stimulated cAMP), CHO cells; format: cell-based; parameters: expressed in transfected cells
T3 sequence (P21554 whole entry): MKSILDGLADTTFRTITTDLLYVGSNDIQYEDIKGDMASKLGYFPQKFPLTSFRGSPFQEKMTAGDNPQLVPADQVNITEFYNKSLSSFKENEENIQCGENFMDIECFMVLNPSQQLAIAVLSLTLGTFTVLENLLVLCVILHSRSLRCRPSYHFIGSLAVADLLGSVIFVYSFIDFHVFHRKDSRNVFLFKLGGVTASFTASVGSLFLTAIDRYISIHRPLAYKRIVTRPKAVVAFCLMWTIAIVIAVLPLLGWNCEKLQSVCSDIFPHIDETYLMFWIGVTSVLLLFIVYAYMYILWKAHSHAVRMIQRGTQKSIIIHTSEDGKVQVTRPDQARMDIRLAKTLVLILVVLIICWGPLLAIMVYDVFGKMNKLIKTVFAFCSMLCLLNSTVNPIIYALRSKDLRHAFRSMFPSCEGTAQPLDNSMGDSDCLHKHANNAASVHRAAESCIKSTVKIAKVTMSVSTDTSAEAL
Procedure: The inhibition of forskolin-stimulated cAMP accumulation assays was carried out using PerkinElmer’s Lance Ultra cAMP kit following the manufacturer’s protocol. In brief, CHO cells stably expressing human CB1R were harvested by incubation with Versene (ThermoFisher Scientific, Waltham, MA) for 10 min, washed once with Hank’s Balanced Salt Solution, and resuspended in stimulation buffer at ~200 cells/μL density. The ligands at eight different concentrations (0.001–10,000 nM) in stimulation buffer (5 μL) containing forskolin (2 μM final concentration) were added to a 384-well plate followed by the cell suspension (5 μL; ~1000 cells/well). The plate was incubated for 30 min at room temperature. Eu-cAMP tracer (5 μL) and Ulight-anti-cAMP (5 μL) working solutions were then added to each well, and the plate was incubated at room temperature for an additional 60 min. Results were measured on a Perkin-Elmer EnVision plate reader. The EC50 values were determined by nonlinear regression analysis using Prism software (GraphPad Software, Inc., San Diego, CA) and are expressed as the mean of three experiments, each performed in triplicate.

hCB1 [2] = molecular target: T3, hCB1; assay: bioSens-All ebBRET effector biosensor signaling profiling, HEK293; format: cell-based; parameters: host or cells: HEK293 (HEK293SL clone), transient
Procedure: ebBRET-based effector membrane translocation biosensor assays were conducted at Domain Therapeutics NA Inc. (Montreal, QC, Canada) as previously described. […] HEK293 cells were maintained in Dulbecco’s Modified Eagle Medium (DMEM) (Wisent) supplemented with 1% penicillin- streptomycin (Wisent) and 10% (or 2 % for transfection) fetal bovine serum (Wisent) at 37°C with 5% CO2. All biosensor-coding plasmids and related information are the property of Domain Therapeutics NA Inc. The total amount of transfected DNA was adjusted and kept constant at 1 μg per mL of cell culture to be transfected using salmon sperm DNA (Invitrogen) as ‘carrier’ DNA, PEI (polyethylenimine 25 kDa linear, PolyScience) and DNA (3:1 ml PEI:mg DNA ratio) were first diluted separately in 150 mM NaCl then mixed and incubated for at least 20 minutes at room temperature to allow for the formation of DNA/PEI complexes. During the incubation, HEK293 cells were detached, counted, and re-suspended in maintenance medium to a 350,000 cells per mL density. At the end of the incubation period, the DNA/PEI mixture was added to the cells. Cells were finally distributed in 96-well plates (White Opaque 96-well /Microplates, Greiner) at a density of 35,000 cells per well. Forty-eight hours post-transfection, medium was aspirated and replaced with 100 μl of Hank’s Balanced Salt Solution buffer (HBSS) (Wisent) per well using 450-Select TS Biotek plate washer. After 60 min incubation in this medium, 10 μL of 10 μM e-Coelenterazine Prolume Purple (Methoxy e-CTZ) (Nanolight) was added to each well for a final concentration of 1 μM immediately followed by addition of increasing concentrations of the test compounds to each well using the HP D300 digital dispenser (Tecan). All compounds were assayed at 22 concentrations with each biosensor after a 10-minute room temperature incubation period. […] All BRET ratios were standardized using the universal BRET (uBRET) equation: uBRET=BRETratio-A/B-A×10,000 where A is the BRET ratio obtained from transfection of negative control and B is the BRET ratio obtained from transfection of positive control. […] The data were analyzed using the four-parameter logistic non-linear regression model in GraphPad Prism 9.1 and data were presented as means ± CIs of 1–4 independent experiments.
The SEM was calculated for the logEmax/EC50 ratios using the following equation: SEM=σ/n where σ is the standard deviation, and n is the number of experiments.

SMILES | conditioned place preference (C56BL/6 mice) | bimane spectrum λmax (CB1R) [nm] | Emax (CB1; maximal radioligand displacement, read-out: rCB1 binding Emax [SEM]) [%] | Ki (CB1; rCB1 binding Ki [95% CI]) | Ki (CB1; rCB1 binding pKi [95% CI]) [nM] | EC50 (hCB1 [1]) [nM] | Emax (hCB1 [1]; CHO, read-out: hCB1 Lance Ultra cAMP Emax [95% CI]) [%] | Emax (hCB1 [2]; HEK293, read-out: hCB1 Gi1 Emax [95% CI]) [%] | Emax (hCB1 [2]; HEK293, read-out: hCB1 GoB Emax [95% CI]) [%] | Emax (hCB1 [2]; HEK293, read-out: hCB1 Gz Emax [95% CI]) [%] | EC50 (hCB1 [2]; hCB1 Gi1 EC50 [95% CI], Gi1 sensor) [nM] | EC50 (hCB1 [2]; hCB1 GoB EC50 [95% CI], GoB sensor) [nM] | EC50 (hCB1 [2]; hCB1 GoB pEC50 [95% CI], GoB sensor) [nM] | EC50 (hCB1 [2]; hCB1 Gz EC50 [95% CI], Gz sensor) [nM]
CN1CC[C@]23c4c5ccc(O)c4O[C@H]2[C@@H](O)C=C[C@H]3[C@H]1C5 [morphine, reference compound] | significantly increased their preference |  |  |  |  |  |  |  |  |  |  |  |  | 
COC(=O)[C@](C)(NC(=O)c1cc(C)n(-c2cccc(C(F)(F)F)c2)n1)c1cccs1 [‘8690] |  | 459 | 100 | 90 nM and 90.2 nM | 79.4 | 473 | 53 | 82 | 83 | 98 | 19.1 | 18 | 15.8 | 33
